Assay results published in the NIST ThermoML archive (doi:10.1021/je700037z).
Numbers after ± are expanded uncertainties.

Conditions: 101.33 kPa, Liquid, Pycnometric method

mass density (285 K): 1290 ± 7 kg/m3
mass density (290 K): 1286 ± 7 kg/m3
mass density (295 K): 1282 ± 7 kg/m3
mass density (300 K): 1279 ± 7 kg/m3
mass density (305 K): 1275 ± 7 kg/m3
SMILES: CCn1cc[n+](C)c1.F[B-](F)(F)F [1-ethyl-3-methylimidazolium tetrafluoroborate]
